From patent US4024082A, “Analgesics” (priority 1975, dated 1977)

Assays:
[1] = humans; cited from earlier work
[2] = J. Med. Chem. 16, 301 (1973); cited from earlier work
[3] = tested on: acetic acid induced stretching; test: Analgesic activity, acetic acid induced stretching method; type: in vivo, male albino mice dd strain; conditions: for ED50, Mean Value: 60 min
Protocol: (§1) The dl-KMG-86, d-KMG-86 and l-KMG-86 were all screened for their biological activity by the assays described in the reference J. Med. Chem. 16, 301 (1973). All three compounds were screened for their analgesic activity by the acetic acid induced stretching method of R. Kosta, Fed. Proc., Fed. Amer. Soc. Exp. Biol., 18, 412 (1959). Male albino mice dd strain (18.0-22.0 g.) were used. After the compounds were administered subcutaneously to five groups of animals consisting of ten mice per group, the effective ratio until 60 minutes was examined and the effective dose in 50% of the mice (ED50) was calculated by the Lichfield-Wilcoxin method [J. T. Lichfield and F. Wilcoxin, J. Pharmacol., 96, 99 (1949)]. […] Med. Wochenschr., 55, 731 (1929)], in which ten male mice dd strain per group were used.

[4] = as described in U.S. Pat. No. 3,728,347; cited from earlier work
[5] = as described in U.S. Pat. No. 3,728,347; cited from earlier work; remark: listed apart in the source
morphine analgesia = test: Antagonism of morphine analgesia, Haffner method; type: in vivo, male mice dd strain; conditions: morphine 16 mg/kg subcutaneously
Protocol: as §1

Side effects or toxicity = conditions: in vivo
[6] = Morphine analgesia (Haffner method); type: in vivo, male mice dd strain; conditions: subcutaneously
Protocol: as §1

[7] = stretching method, subcutaneous, effective ratio until 60 minutes, Lichfield-Wilcoxin method

Oc1ccc2c(c1)C13CCCCC1N(C2)N(CC1CC1)CC3 (racemic) [dl-KMG-86, dl-N-cyclopropylmethyl-3-hydroxy-9-azamorphinan]
confirmation in clinical studies of the activity found in mice [1]: The activity found in mice was confirmed in clinical studies in humans | activity relative to pentazocine [2]: about twice as active as pentazocine | ED50, Mean Value [3, 7]: 1.63 mg/kg | analgesic activity compared with morphine [4]: remarkable analgesic activity as strong as that possessed by morphine | opiate dependence liability [5]: lacking opiate dependence liability | Antagonist Dose (AD50) (morphine analgesia): 4.70 mg/kg, S. C.

CC(C)=CCN1CCC2(C)c3cc(O)ccc3CC1C2C (centres unmarked) [Pentazocine, reference compound]
ED50 ([3]; Mus musculus, sc, 1 h, stretching method, subcutaneous, effective ratio until 60 minutes, Lichfield-Wilcoxin method): 2.4 mg/kg

Oc1ccc2c(c1)C13CCCCC1N(C2)N(CC1CC1)CC3 (stereo not drawn) [d-KMG-86, d-N-cyclopropylmethyl-3-hydroxy-9-azamorphinan]
ED50, Mean Value [3, 7]: ca. 80 mg/kg | Antagonist Dose (AD50) (morphine analgesia): 20 mg/kg, S. C.

Oc1ccc2c(c1)C13CCCCC1N(C2)N(CC1CC1)CC3 (stereo not drawn) [l-KMG-86, l-N-cyclopropylmethyl-3-hydroxy-9-azamorphinan]
potency of l-isomer relative to dl-mixture ([3]; from Table I ED50 (stretching method)): about 3.5 fold | ED50, Mean Value [3, 7]: 0.45 mg/kg | side effects or toxicity (Side effects or toxicity): no substantial side effects or toxicity | Antagonist Dose (AD50) (morphine analgesia): 2.20 mg/kg, S. C.

CN1CC[C@]23c4c5ccc(O)c4O[C@H]2[C@@H](O)C=C[C@H]3[C@H]1C5 [morphine]
ED100 of morphine [6]: 16 mg/kg
